Assay results reported in patent publication US8211900B2, “DHFR enzyme inhibitors” (Chroma Therapeutics Ltd., priority 2006, dated 2012).

How the values were obtained:
recombinant human DHFR = target: T1, recombinant human DHFR (Homo sapiens, UniProt P00374); assay: DHFR enzyme inhibition assay (Sigma kit CS0340); assay type: biochemical; settings: NADPH 60 μM, dihydrofolic acid 50 μM
T1 construct: purchased Sigma CS0340
T1 sequence (P00374 1-187): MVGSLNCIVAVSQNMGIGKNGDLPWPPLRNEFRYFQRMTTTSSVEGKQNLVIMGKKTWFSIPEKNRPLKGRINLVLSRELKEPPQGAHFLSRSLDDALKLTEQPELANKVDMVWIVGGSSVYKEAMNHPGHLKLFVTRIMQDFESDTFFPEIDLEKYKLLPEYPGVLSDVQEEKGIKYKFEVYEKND
Protocol: The ability of compounds to inhibit DHFR activity was measured in an assay based on the ability of DHFR to catalyse the reversible NADPH-dependent reduction of dihydrofolic acid to tetrahydrofolic acid using a Sigma kit (Catalogue number CS0340). This uses proprietary assay buffer and recombinant human DHFR at 7.5×10^−4 Unit per reaction, NADPH at 60 μM and dihydrofolic acid at 50 μM. The reaction was followed by monitoring the decrease in absorbance at 340 nm, for a 2 minute period, at room temperature, and the enzyme activity was calculated as the rate of decrease in absorbance. Enzyme activity, in the presence of inhibitor, was expressed as a percentage of inhibitor-free activity and the inhibitor IC50 was determined from a sigmoidal dose response curve using XLfit software (% activity against log concentration of compound). Each sample was run in triplicate and each dose response curve was composed of 10 dilutions of the inhibitor.

U937 = assay: Cell inhibition assay (WST-1 cell viability), U937; assay type: cell-based; settings: Homo sapiens, U-937, U937 cells, 72-96 h, read-out: Inhibition cell proliferation U937
Protocol: (§1) Cancer cell lines (U937, HCT-116, THP-1 and HUT78) growing in log phase were harvested and seeded at 1000-2000 cells/well (100 μl final volume) into 96-well tissue culture plates. Following 24 h of growth cells were treated with compound.
(§2) Plates were then re-incubated for a further 72-96 h before a WST-1 cell viability assay was conducted according to the suppliers (Roche Applied Science) instructions. Data were expressed as a percentage inhibition of the control, measured in the absence of inhibitor, as follows:— % inhibition=100−((S^i/S^o)×100) where S^i is the signal in the presence of inhibitor and S^o is the signal in the presence of DMSO. Dose response curves were generated from 8 concentrations (top final concentration 10 μM, with 3-fold dilutions), using 6 replicates. IC50 values were determined by non-linear regression analysis, after fitting the results to the equation for sigmoidal dose response with variable slope (% activity against log concentration of compound), using Graphpad Prism software. IC50 values were allocated to one of the three ranges as follows: • Range A IC %)<100 nM • Range B: 100 nM<IC50<1000 nM • Range C: IC50>1000 nM

HCT-116 = assay: Cell inhibition assay (WST-1 cell viability), HCT-116; assay type: cell-based; settings: Homo sapiens, HCT-116 cells, 72-96 h, read-out: Inhibition cell proliferation HCT-116
Protocol: as §1, §2

HUT78 = assay: Cell inhibition assay (WST-1 cell viability), HUT78; assay type: cell-based; settings: Homo sapiens, HUT78 cells, 72-96 h, read-out: Inhibition cell proliferation HUT
Protocol: as §1, §2

THP-1 = assay: Cell inhibition assay (WST-1 cell viability), THP-1; assay type: cell-based; settings: Homo sapiens, THP-1 cells, 72-96 h, read-out: Inhibition cell proliferation THP-1
Protocol: as §1, §2

| SMILES | IC50 (recombinant human DHFR) [µM] | IC50 (U937) [µM] | IC50 (HCT-116) [µM] | IC50 (HUT78) [µM] | IC50 (THP-1) [µM] |
| --- | --- | --- | --- | --- | --- |
| Cc1c(CNc2ccc(C(=O)N[C@@H](CC(C)C)C(=O)OC3CCCC3)cc2)cnc2nc(N)nc(N)c12 [Example 1, (S)-2-{4-[(2,4-Diamino-5-methyl-pyrido[2,3-d]pyrimidin-6-ylmethyl)-amino]-benzoylamino}-4-methyl-pentanoic Acid Cyclopentyl Ester] | > 1 | < 0.1 | < 0.1 | < 0.1 | < 0.1 |
| Cc1c(CNc2ccc(C(=O)N[C@@H](CC(C)C)C(=O)O)cc2)cnc2nc(N)nc(N)c12 [Example 2, (S)-2-(4-((2,4-diamino-5-methylpyrido[2,3-a]pyrimidin-6-yl)methylamino)benzamido)-4-methylpentanoic Acid] | < 0.1 |  |  |  |  |
| Cc1c(CNc2ccc(CN[C@@H](CC(C)C)C(=O)OC3CCCC3)cc2)cnc2nc(N)nc(N)c12 [Example 3, (S)-2-{4-[(2,4-Diamino-5-methyl-pyrido[2,3-d]pyrimidin-6-ylmethyl)-amino]-benzylamino}-4-methyl-pentanoic Acid Cyclopentyl Ester] | > 1 | < 0.1 | > 1 | 0.1 to 1 | 0.1 to 1 |
| Cc1c(CNc2ccc(CN[C@@H](CC(C)C)C(=O)O)cc2)cnc2nc(N)nc(N)c12 [Example 4, (S)-2-{4-[(2,4-Diamino-5-methyl-pyrido[2,3-d]pyrimidin-6-ylmethyl)-amino]-benzylamino}-4-methyl-pentanoic Acid] | < 0.1 |  |  |  |  |
| COc1cc(NCc2ccc3nc(N)nc(N)c3c2C)cc(OC)c1OCC(=O)N[C@@H](CC(C)C)C(=O)OC1CCCC1 [Example 5, Cyclopentyl N-[(4-{[(2,4-diamino-5-methylquinazolin-6-yl)methyl]amino}-2,6-dimethoxyphenoxy)acetyl]-L-leucinate] | > 1 | < 0.1 | 0.1 to 1 | < 0.1 | < 0.1 |
| COc1cc(NCc2ccc3nc(N)nc(N)c3c2C)cc(OC)c1OCC(=O)N[C@@H](CC(C)C)C(=O)OC(C)(C)C [Example 6, tert-Butyl N-[(4-{[(2,4-diamino-5-methylquinazolin-6-yl)methyl]amino}-2,6-dimethoxyphenoxy)acetyl]-L-leucinate] | > 1 | < 0.1 | 0.1 to 1 | 0.1 to 1 | < 0.1 |
| COc1cc(NCc2ccc3nc(N)nc(N)c3c2C)cc(OC)c1OCC(=O)N[C@@H](CC(C)C)C(=O)O [Example 7, N-[(4-{[(2,4-diamino-5-methylquinazolin-6-yl)methyl]amino}-2,6-dimethoxyphenoxy)acetyl]-L-leucine] | < 0.1 |  |  |  |  |
| COc1cc(NCc2ccc3nc(N)nc(N)c3c2C)cc(OC)c1OCCN[C@@H](CC(C)C)C(=O)OC1CCCC1 [Example 8, Cyclopentyl N-[2-(4-{[(2,4-diamino-5-methylquinazolin-6-yl)methyl]amino}-2,6-dimethoxyphenoxy)ethyl]-L-leucinate] | 0.1 to 1 | < 0.1 | 0.1 to 1 | < 0.1 | < 0.1 |
| COc1cc(NCc2ccc3nc(N)nc(N)c3c2C)cc(OC)c1OCCN[C@@H](CC(C)C)C(=O)O [Example 9, N-[2-(4-{[(2,4-diamino-5-methylquinazolin-6-yl)methyl]amino}-2,6-dimethoxyphenoxy)ethyl]-L-leucine] | < 0.1 |  |  |  |  |
| COc1cc(NCc2ccc3nc(N)nc(N)c3c2C)cc(OC)c1OCCN[C@@H](CC(C)C)C(=O)OC(C)(C)C [Example 10, tert-Butyl N-[2-(4-{[(2,4-diamino-5-methylquinazolin-6-yl)methyl]amino}-2,6-dimethoxyphenoxy)ethyl]-L-leucinate] | 0.1 to 1 | 0.1 to 1 | 0.1 to 1 | 0.1 to 1 | 0.1 to 1 |
